Literature values in patent publication US5789395A, “Method of using tetracycline compounds for inhibition of endogenous nitric oxide production” (The Research Foundation of State University of New York, priority 1996, dated 1998).

Experiments:
[1] = tested on: gelatinase in UMR 106-01 osteoblastic cell line; settings: Vernillo et al. 1993; cited from earlier work
[2] = tested on: patients with mild and moderate arthritis; settings: Tilley et al. 1995; cited from earlier work

Row | Compound | IC50, gelatinase activity [1] [µg/mL] | safety and efficacy in arthritis [2]
1 | C[C@H]1c2cccc(O)c2C(O)=C2C(=O)[C@]3(O)C(O)=C(C(N)=O)C(=O)[C@@H](N(C)C)[C@@H]3[C@@H](O)[C@@H]21 [doxycycline] | > 200 | –
2 | CN(C)c1ccc(O)c2c1C[C@H]1C[C@H]3[C@H](N(C)C)C(O)=C(C(N)=O)C(=O)[C@@]3(O)C(O)=C1C2=O [minocycline] | – | safe and effective for patients with mild and moderate arthritis
